Laboratory results: patent publication US20220096410A1, “PHARMACEUTICAL COMPOSITION FOR INTRAOCULAR OR ORAL ADMINISTRATION FOR TREATMENT OF RETINAL DISEASES” (FUSO PHARMACEUTICAL INDUSTRIES, LTD., priority 2019, published 2022)

Tests used:
Assay type in all cases: in vivo, BALB/c mice
[1] = system: light irradiation model (atrophic AMD model mouse); assay: Pharmacological test against AMD, light-induced AMD model mice, oral administration, ONL thickness
Method: A test was performed using a light irradiation model, which is widely employed as an atrophic AMD model mouse, as a test model. Male BALB/c mice (4 weeks old) were purchased from Japan SLC, Inc., and allowed to acclimate for a week before being used for experiments. Laboratory animal chow (CLEA Rodent Diet CE-2, CREA JAPAN, INC.) was used as food, and tap water was freely consumed as drinking water. The animals were raised under light and dark cycles of every 12 hours. Also all animal experiments were conducted under the approval of the Kyushu University Animal Experiment Committee. To BALB/c mice, 1 mL/kg of 50 μM compound dissolved in PBS containing 10% polyethylene glycol (PEG) 300 was orally administered. Thirty (30) minutes later, one drop of […] (5 mg/mL tropicamide, 5 mg/mL phenylephrine hydrochloride; Santen Pharmaceutical Co., Ltd.) was applied to each eye as a mydriatic drug. The mice were irradiated with 8000 lux white light for 10 hours, then returned to under normal light and dark cycles, and raised for 6 days. On day 7, the animal was euthanized by cervical dislocation, and the eyeballs were removed (FIG. 1A). Frozen sections of 8 μm thickness were prepared by using the above-mentioned removed eyeballs, and subjected to hematoxylin eosin (HE) staining, and the thickness of the outer nuclear layer (ONL) was measured over 27 points every 180 μm (observation magnification: 60 times) (FIG. 1B). The preparation was air-dried for 1 hour, fixed with acetone at room temperature for 15 minutes, then immersed in 99.5% EtOH, 80% EtOH, 70% EtOH, and purified water in this order for 3 minutes each, and stained with hematoxylin for 10 minutes. Then, it was washed with running water for 10 minutes, soaked in warm water for 1 minute, and stained with eosin for 1.5 minutes. After washing with purified water, it was immersed in 70% EtOH, 80% EtOH, and 99.5% EtOH in this order for 3 minutes each, then washed with xylene three times, dried, and then enclosed with VectaMountTM Mounting Medium. The resultant was subjected to observation and imaging with Keyence fluorescence microscope (BZ-9000). Results were expressed as mean+standard deviation. Dunnett's Test was used for multigroup comparison.

[2] = system: light irradiation model (atrophic AMD model mouse); assay: Pharmacological test against AMD, light-induced AMD model mice, administration by eye drop, ONL thickness; details: 50 μL per one eye
Method: A test was performed using a light irradiation model, which is widely employed as an atrophic AMD model mouse, as a test model.
(§1) Male BALB/c mice (4 weeks old) were purchased from Japan SLC, Inc., and allowed to acclimate for a week before being used for experiments. Laboratory animal chow (CLEA Rodent Diet CE-2, CREA JAPAN, INC.) was used as food, and tap water was freely consumed as drinking water. The animals were raised under light and dark cycles of every 12 hours. Also all animal experiments were conducted under the approval of the Kyushu University Animal Experiment Committee.
To BALB/c mice, Midrin P (5 mg/mL tropicamide, 5 mg/mL phenylephrine hydrochloride; Santen Pharmaceutical Co., Ltd.) as a mydriatic drug was applied to both eyes by one drop per one eye, and after 10 minutes, 0.45%, 0.75% or 1% of methyldopa that was dissolved in PBS containing 10% polyethylene glycol (PEG) 300 was administered with eye drop in 50 μL of the compound per one eye. Thereafter, the mice were irradiated with 8000 lux white light for 10 hours, then returned to under normal light and dark cycles, and raised for 6 days. On day 7, the animal was euthanized by cervical dislocation, and the eyeballs were removed.
Frozen sections of 8 μm thickness were prepared by using the above-mentioned removed eyeballs, and subjected to hematoxylin eosin (HE) staining, and the thickness of the outer nuclear layer (ONL) was measured over 27 points every 180 μm (observation magnification: 40 times).
The preparation was air-dried for 1 hour, fixed with acetone at room temperature for 15 minutes, then immersed in 99.5% EtOH, 80% EtOH, 70% EtOH, and purified water in this order for 3 minutes each, and stained with hematoxylin for 10 minutes. Then, it was washed with running water for 10 minutes, soaked in warm water for 1 minute, and stained with eosin for 1.5 minutes. […] The resultant was subjected to observation and imaging with Keyence fluorescence microscope (BZ-9000).
Results were expressed as mean+standard deviation. […]

mRNA of the complement = assay: Activity evaluation test of complement (real-time PCR of retina, AMD model mice); details: oral, 1 mL/kg of 50 μM, pathological group of mice
Method: Specifically, to 9 week olds of BALB/c mice, 1 mL/kg of 50 μM test compounds dissolved in PBS containing 10% polyethylene glycol (PEG) 300 was orally administered. A PBS solution containing 10% polyethylene glycol (PEG) 300 was used as a control. Thirty (30) minutes later, one drop of Midrin P (5 mg/mL tropicamide, 5 mg/mL phenylephrine hydrochloride; Santen Pharmaceutical Co., Ltd.) as a mydriatic drug was applied to both eyes by one drop per one eye. The mice were irradiated with 8000 lux white light for 10 hours, then returned to under normal light and dark cycles, and raised for the desirable observation periods. After the observation periods, the animal was euthanized by cervical dislocation, and the retina were removed.
For the removed retina, RNA was extracted by using ISOSPIN Cell & Tissue RNA (manufactured by Nippon Gene Co. Ltd), and cDNA was then synthesized by using ReverTra Ace™ qPCR RT master Mix (manufactured by Toyobo Co. Ltd). The obtained cDNA was diluted with sterile water to 0.5 ng/μL, and a real-time PCR was carried out with THUNDERBIRD™ SYBR™ qPCR Mix (manufactured by Toyobo Co. Ltd). All of the test results were corrected by Gapdh mRNA amounts, and a relative quantification was carried. […]

[3] = system: mRNA of microglia marker protein; assay: Activity evaluation test of microglia (real-time PCR of retina, AMD model mice); details: oral, 1 mL/kg of 50 μM, pathological group of mice
[4] = system: mRNA of Muller cell marker protein; assay: Activity evaluation test of Muller cell (real-time PCR of retina, AMD model mice); details: oral, 1 mL/kg of 50 μM, pathological group of mice
Description: For age-related macular degeneration (AMD), the suppression activity of the test compounds against the expression amount of mRNA of a marker protein, which is used as an indicator of activity of Muller cell and is increased as a pathology is deteriorated, was examined. The present compound as test compound was methyldopa (Compound Y).
as §1
A method for producing age-related macular degeneration (AMD) model mice (production schedule) was prepared according to the method described in Test Example 2 (FIG. 3). […]
For the removed retina, RNA was extracted by using ISOSPIN Cell & Tissue RNA (manufactured by Nippon Gene Co. Ltd), and cDNA was then synthesized by using ReverTra Ace™ qPCR RT master Mix (manufactured by Toyobo Co. Ltd). […] All of the test results were corrected by Gapdh mRNA amounts, and a relative quantification was carried.

[5] = 50 μmol/kg, 8000 lux white light 10 hours, day 7

Compound | ONL thickness compared to positive control [1, 5] | ONL thickness compared to light irradiation case ([2]; eye drop 0.45%) | ONL thickness compared to light irradiation case ([2]; eye drop 0.75%) | ONL thickness compared to light irradiation case ([2]; eye drop 1%) | expression amounts of mRNA in the complement (mRNA of the complement) | ONL thickness compared to positive control ([1]; 100 μmol/kg) | ONL thickness compared to positive control ([1]; 200 μmol/kg) | expression amounts of mRNA in microglia marker protein [3] | expression amounts of mRNA in Muller cell marker protein [4]
CC1Cc2ccccc2N1NC(=O)c1ccc(Cl)c(S(N)(=O)=O)c1 (racemic) [indapamide, 4-Chloro-N-[(2RS)-2-methyl-2,3-dihydro-1H-indol-1-yl]-3-sulfamoyl Benzamide] | not different so much compared to that of the positive control |  |  |  |  |  |  |  | 
CCOc1ccc2c(c1)C(C)=CC(C)(C)N2 [ethoxyquin, 6-Ethoxy-2,2,4-trimethyl-1,2-dihydroquinoline] | not different so much compared to that of the positive control |  |  |  |  |  |  |  | 
C[C@](N)(Cc1ccc(O)c(O)c1)C(=O)O [methyldopa, Methyldopa Sesquihydrates] |  | significant thickness compared to that of the light irradiation case | significant thickness compared to that of the light irradiation case | significant thickness compared to that of the light irradiation case | suppress significantly | didn't have significant difference compared to that of the positive control | didn't have significant difference compared to that of the positive control | suppress significantly | suppress significantly
